Data: patent US20090176811A1, “Substituted 5,6,7,8-Tetrahydro-pyrido[4,3-d]pyrimidine-2-yl Compounds and 5,6,7,8-Tetrahydro-quinazoline-2-yl Compounds” (GRUENENTHAL GmbH, priority 2004, published 2009)

Each compound was assayed on batrachotoxin (BTX) binding site of the sodium channel (assay: Affinity for the batrachotoxin (BTX) binding site of the sodium channel ([3H]-Batrachotoxinin A20 benzoate, rat cerebrocortex synaptosomes)). Settings: [3H]-Batrachotoxinin A20 benzoate 10 nM, test concentration not given.

Q: For `Cc1cc(C)c(S(=O)(=O)N2CCc3nc(NC(=O)c4ccc(Cl)c(Cl)c4)ncc3C2)c(C)c1` [Example 95, 3,4-dichloro-N-[6-(2,4,6-trimethyl-benzenesulfonyl)-5,6,7,8-tetrahydro-pyrido[4,3-d]pyrimidin-2-yl]-benzamide], which BTX inhibition is on record?
A: 77

Q: For `Cc1ccc(S(=O)(=O)N2CCc3nc(NC(=O)c4cccc(F)c4)ncc3C2)cc1` [Example 143, 3-fluoro-N-[6-(toluene-4-sulfonyl)-5,6,7,8-tetrahydro-pyrido[4,3-d]pyrimidin-2-yl]-benzamide], which BTX inhibition is on record?
A: 61

Q: `O=C(Nc1ncc2c(n1)CCN(C(=O)C1=Cc3ccccc3OC1)C2)c1ccc(F)c(F)c1` [Example 175, N-[6-(2H-chromene-3-carbonyl)-5,6,7,8-tetrahydro-pyrido[4,3-d]pyrimidin-2-yl]-3,4-difluoro-benzamide] was tested. Which BTX inhibition did it give?
A: 49

Q: With `Cc1nc(C)c(S(=O)(=O)N2CCc3nc(NC(=O)c4ccc(Cl)cc4)ncc3C2)s1` [Example 79, 4-chloro-N-[6-(2,4-dimethyl-thiazole-5-sulfonyl)-5,6,7,8-tetrahydro-pyrido[4,3-d]pyrimidin-2-yl]-benzamide] as the compound, how does the BTX inhibition read?
A: 34

Q: How did the BTX inhibition turn out when `O=C(Nc1ncc2c(n1)CCN(C(=O)c1ccc3ccccc3c1)C2)c1ccc(Cl)cc1` [Example 69] was run?
A: 64

Q: How did the BTX inhibition turn out when `O=C(Nc1ncc2c(n1)CCN(C(=O)c1sc3ccccc3c1Cl)C2)c1cccs1` [Example 110, thiophene-2-carboxylic acid [6-(3-chloro-benzo[b]thiophene-2-carbonyl)-5,6,7,8-tetrahydro-pyrido[4,3-d]pyrimidin-2-yl]-amide] was run?
A: 40

Q: How did the BTX inhibition turn out when `CC(C)(C)c1ccc(C(=O)Nc2ncc3c(n2)CCN(S(=O)(=O)c2ccc4c(c2)OCCO4)C3)cc1` [Example 186, 4-tert-butyl-N-[6-(2,3-dihydro-benzo[1,4]dioxin-6-sulfonyl)-5,6,7,8-tetrahydro-pyrido[4,3-d]pyrimidin-2-yl]-benzamide] was run?
A: 77

Q: `CCc1ccc(C(=O)Nc2ncc3c(n2)CCN(C(=O)c2ccc(Cl)c(Cl)c2)C3)cc1` [Example 101, N-[6-(3,4-dichloro-benzoyl)-5,6,7,8-tetrahydro-pyrido[4,3-d]pyrimidin-2-yl]-4-ethyl-benzamide] was tested. Which BTX inhibition did it give?
A: 68

Q: `CCc1ccc(C(=O)Nc2ncc3c(n2)CCN(C(=O)c2ccc(-n4cccn4)cc2)C3)cc1` [Example 74, 4-ethyl-N-[6-(4-pyrazol-1-yl-benzoyl)-5,6,7,8-tetrahydro-pyrido[4,3-d]pyrimidin-2-yl]-benzamide] was tested. Which BTX inhibition did it give?
A: 66

Q: Which BTX inhibition does the source give for `O=C(Nc1ncc2c(n1)CCN(C(=O)c1cccc(F)c1)C2)c1cccc2ccccc12` [Example 183, naphthalene-1-carboxylic acid [6-(3-fluoro-benzoyl)-5,6,7,8-tetrahydro-pyrido[4,3-d]pyrimidin-2-yl]-amide] here?
A: 31

Q: How did the BTX inhibition turn out when `O=C(Nc1ncc2c(n1)CCN(S(=O)(=O)c1ccc(Cl)s1)C2)c1cccc2ccccc12` [Example 117, naphthalene-1-carboxylic acid [6-(5-chloro-thiophene-2-sulfonyl)-5,6,7,8-tetrahydro-pyrido[4,3-d]pyrimidin-2-yl]-amide] was run?
A: 37

Q: Which BTX inhibition does the source give for `Cc1cccc(C(=O)Nc2ncc3c(n2)CCN(S(=O)(=O)c2cccc(C)c2)C3)c1` [Example 116, 3-methyl-N-[6-(toluene-3-sulfonyl)-5,6,7,8-tetrahydro-pyrido[4,3-d]pyrimidin-2-yl]-benzamide] here?
A: 53

Q: How did the BTX inhibition turn out when `CCCCCC(=O)NC1CCc2nc(NC(=O)c3ccc(F)cc3)ncc2C1` (centres unmarked) [Example 128, 4-fluoro-N-(6-hexanoylamino-5,6,7,8-tetrahydro-quinazolin-2-yl)-benzamide] was run?
A: 33

Q: `O=C(Nc1ncc2c(n1)CCN(C(=O)Cc1c(Cl)cccc1Cl)C2)c1cccc(Cl)c1` [Example 187, 3-chloro-N-{6-[2-(2,6-dichloro-phenyl)-acetyl]-5,6,7,8-tetrahydro-pyrido[4,3-d]pyrimidin-2-yl}-benzamide] was tested. Which BTX inhibition did it give?
A: 43

Q: With `Cc1ccc(C(=O)Nc2ncc3c(n2)CCN(C(=O)c2ccc(SC(F)(F)F)cc2)C3)cc1` [Example 148, 4-methyl-N-[6-(4-trifluoromethylsulfanyl-benzoyl)-5,6,7,8-tetrahydro-pyrido[4,3-d]pyrimidin-2-yl]-benzamide] as the compound, how does the BTX inhibition read?
A: 85

Q: For `CCc1ccc(C(=O)Nc2ncc3c(n2)CCN(S(=O)(=O)c2ccc(OC)cc2)C3)cc1` [Example 172, 4-ethyl-N-[6-(4-methoxy-benzenesulfonyl)-5,6,7,8-tetrahydro-pyrido[4,3-d]pyrimidin-2-yl]-benzamide], which BTX inhibition is on record?
A: 57

Q: Which BTX inhibition does the source give for `O=C(Nc1ncc2c(n1)CCN(S(=O)(=O)c1cccc(Br)c1)C2)c1cccc(Cl)c1` [Example 125, N-[6-(3-bromo-benzenesulfonyl)-5,6,7,8-tetrahydro-pyrido[4,3-d]pyrimidin-2-yl]-3-chloro-benzamide] here?
A: 66

Q: Which BTX inhibition does the source give for `CCc1ccc(C(=O)Nc2ncc3c(n2)CCN(S(=O)(=O)c2ccsc2)C3)cc1` [Example 121, 4-ethyl-N-[6-(thiophene-3-sulfonyl)-5,6,7,8-tetrahydro-pyrido[4,3-d]pyrimidin-2-yl]-benzamide] here?
A: 57

Q: Which BTX inhibition does the source give for `Cc1ccc(C(=O)Nc2ncc3c(n2)CCN(C(=O)COc2cccc(Cl)c2)C3)cc1` [Example 189, N-{6-[2-(3-chloro-phenoxy)-acetyl]-5,6,7,8-tetrahydro-pyrido[4,3-d]pyrimidin-2-yl}-4-methyl-benzamide] here?
A: 55

Q: With `O=C(Nc1ncc2c(n1)CCN(C(=O)c1ccc(OC(F)(F)F)cc1)C2)c1cc(Cl)cc(Cl)c1` [Example 192, 3,5-dichloro-N-[6-(4-trifluoromethoxy-benzoyl)-5,6,7,8-tetrahydro-pyrido[4,3-d]pyrimidin-2-yl]-benzamide] as the compound, how does the BTX inhibition read?
A: 87

Q: How did the BTX inhibition turn out when `O=C(CCc1ccccc1)NC1CCc2nc(NC(=O)c3ccc(F)cc3)ncc2C1` (centres unmarked) [Example 94, 4-fluoro-N-[6-(3-phenyl-propionylamino)-5,6,7,8-tetrahydro-quinazolin-2-yl]-benzamide] was run?
A: 47

Q: Which BTX inhibition does the source give for `CCc1ccc(C(=O)Nc2ncc3c(n2)CCN(S(=O)(=O)c2ccccc2Cl)C3)cc1` [Example 114, N-[6-(2-chloro-benzenesulfonyl)-5,6,7,8-tetrahydro-pyrido[4,3-d]pyrimidin-2-yl]-4-ethyl-benzamide] here?
A: 82

Q: How did the BTX inhibition turn out when `O=C(Nc1ncc2c(n1)CCN(C(=O)CCCCc1ccccc1)C2)c1ccccc1` [Example 190, N-[6-(5-phenyl-pentanoyl)-5,6,7,8-tetrahydro-pyrido[4,3-d]pyrimidin-2-yl]-benzamide] was run?
A: 56

Q: Which BTX inhibition does the source give for `Cc1cccc(C(=O)Nc2ncc3c(n2)CCN(S(=O)(=O)c2sc(C)nc2C)C3)c1` [Example 68, N-[6-(2,4-dimethyl-thiazole-5-sulfonyl)-5,6,7,8-tetrahydro-pyrido[4,3-d]pyrimidin-2-yl]-3-methyl-benzamide] here?
A: 35

Q: With `CCOc1ccccc1C(=O)Nc1ncc2c(n1)CCN(C(=O)c1sccc1Cl)C2` [Example 145, N-[6-(3-chloro-thiophene-2-carbonyl)-5,6,7,8-tetrahydro-pyrido[4,3-d]pyrimidin-2-yl]-2-ethoxy-benzamide] as the compound, how does the BTX inhibition read?
A: 46

Q: `COc1ccccc1C(=O)Nc1ncc2c(n1)CCN(C(=O)c1cc(-c3ccc(Cl)cc3)oc1C)C2` [Example 78, N-{6-[5-(4-chloro-phenyl)-2-methyl-furan-3-carbonyl]-5,6,7,8-tetrahydro-pyrido[4,3-d]pyrimidin-2-yl}-2-methoxy-benzamide] was tested. Which BTX inhibition did it give?
A: 31

Q: For `CCc1ccc(C(=O)Nc2ncc3c(n2)CCN(S(=O)(=O)c2ccc4c(c2)CN(C(=O)C(F)(F)F)CC4)C3)cc1` [Example 157, 4-ethyl-N-{6-[2-(2,2,2-trifluoro-acetyl)-1,2,3,4-tetrahydro-isoquinoline-7-sulfonyl]-5,6,7,8-tetrahydro-pyrido[4,3-d]pyrimidin-2-yl}-benzamide], which BTX inhibition is on record?
A: 63

Q: Which BTX inhibition does the source give for `O=C(Nc1ncc2c(n1)CCN(C(=O)c1ccc(F)cc1F)C2)c1ccc(Cl)cc1` [Example 152, 4-chloro-N-[6-(2,4-difluoro-benzoyl)-5,6,7,8-tetrahydro-pyrido[4,3-d]pyrimidin-2-yl]-benzamide] here?
A: 55

Q: Which BTX inhibition does the source give for `O=C(Nc1ncc2c(n1)CCN(C(=O)c1ccc(-c3cccs3)cc1)C2)c1cc(Cl)cc(Cl)c1` [Example 144, 3,5-dichloro-N-[6-(4-thiophen-2-yl-benzoyl)-5,6,7,8-tetrahydro-pyrido[4,3-d]pyrimidin-2-yl]-benzamide] here?
A: 81

Q: How did the BTX inhibition turn out when `COc1cccc(C(=O)Nc2ncc3c(n2)CCN(S(=O)(=O)c2cc(Br)ccc2OC)C3)c1` [Example 129, N-[6-(5-bromo-2-methoxy-benzenesulfonyl)-5,6,7,8-tetrahydro-pyrido[4,3-d]pyrimidin-2-yl]-3-methoxy-benzamide] was run?
A: 76

Q: For `CC(C)C(NC(=O)OCC1c2ccccc2-c2ccccc21)C(=O)NC1CCc2nc(NC(=O)c3cccs3)ncc2C1` (centres unmarked) [Example 139, (2-methyl-1-{2-[(thiophene-2-carbonyl)-amino]-5,6,7,8-tetrahydro-quinazolin-6-ylcarbamoyl}-propyl)-carbamic acid 9H-fluoren-9-ylmethyl ester], which BTX inhibition is on record?
A: 62

Q: For `O=C(Nc1ncc2c(n1)CCN(C(=O)c1ccc(Cl)c(Cl)c1)C2)c1ccccc1F` [Example 113, N-[6-(3,4-dichloro-benzoyl)-5,6,7,8-tetrahydro-pyrido[4,3-d]pyrimidin-2-yl]-2-fluoro-benzamide], which BTX inhibition is on record?
A: 38

Q: Which BTX inhibition does the source give for `CCCCC(C)CCC(=O)N1CCc2nc(NC(=O)c3cccc4ccccc34)ncc2C1` (centres unmarked) [Example 193, naphthalene-1-carboxylic acid [6-(4-methyl-octanoyl)-5,6,7,8-tetrahydro-pyrido[4,3-d]pyrimidin-2-yl]-amide] here?
A: 84

Q: How did the BTX inhibition turn out when `O=C(Nc1ncc2c(n1)CCN(C(=O)CCC1CCCC1)C2)c1ccncc1` [Example 132, N-[6-(3-cyclopentyl-propionyl)-5,6,7,8-tetrahydro-pyrido[4,3-d]pyrimidin-2-yl]-isonicotinamide] was run?
A: 72

Q: Which BTX inhibition does the source give for `O=C(Nc1ncc2c(n1)CCN(C(=O)Cc1ccc(C(F)(F)F)cc1)C2)c1ccccc1` [Example 155, N-{6-[2-(4-trifluoromethyl-phenyl)-acetyl]-5,6,7,8-tetrahydro-pyrido[4,3-d]pyrimidin-2-yl}-benzamide] here?
A: 62
